According to patent US20250179059A1 (The Regents of the University of California, priority 2021, published 2025):
Read-outs that look alike come from different tables or passages of the source.

Tests used:
[1] = tested on: human SKM-1 acute myeloid leukemia cells; assay: SKM-1 antiproliferation cell-based assay (ATPlite); conditions: Homo sapiens
In short: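 Log-phase cells in RPMI 1640/15% FBS were seeded at 34722 cells/mL and exposed for 4 days to nine-concentration DMSO serial dilutions in triplicate. Viability was read as ATP luminescence (ATPlite 1step), and IC50 values came from variable-slope non-linear regression.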

[2] = biological target: T1, human BRD4 bromodomain II (Homo sapiens, UniProt O60885); assay: Bromodomain binding assay (AlphaScreen), BRD4 BDII
T1 construct: human BRD4 bromodomain II [based on Genbank NM_058243, residues 349-460]; host or cells: E. coli
In short: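 Tagged BRD4 BDI or BDII constructs, expressed in E. coli, competed against a K5/K8/K12/K16-acetylated biotin-H4 peptide. Proximity signal between bead pairs after room-temperature incubations gave concentration-response curves, from which IC50 was derived.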

[3] = SKM-1, 96 h, SKM-1 antiproliferation assay, 4 days, Table C2
[4] = AlphaScreen assay, Table C2, read-out: BRD4 BDII IC50
[5] = SKM-1, SKM-1 antiproliferation assay
[6] = BRD4 BDII AlphaScreen assay, read-out: BRD4 BD2 IC50

Row | SMILES | GI50 [1, 3] | IC50 [2, 4] | GI50 [1, 5] | IC50 [2, 6]
1 | O=c1n(-c2ccc(-c3cc(F)cc(-c4ccnc(N5CCNCC5)c4)c3O)cc2Cl)ccn1C(F)F [Example 468, 1-(3-chloro-5′-fluoro-2′-hydroxy-3′-(2-(piperazin-1-yl)pyridin-4-yl)-[1,1′-biphenyl]-4-yl)-3-(difluoromethyl)-1H-imidazol-2(3H)-one] | 300 to 3000 nM | 1 to 10 nM | – | –
2 | CC1CC(=O)N(c2ccc(-c3cccc(-c4ccnc(N5CCNCC5)c4)c3O)cc2Cl)C1 (stereo not shown) [Example 340, 1-(3-chloro-2′-hydroxy-3′-(2-(piperazin-1-yl)pyridin-4-yl)-[1,1′-biphenyl]-4-yl)-4-methylpyrrolidin-2-one] | 300 to 3000 nM | > 100 nM | – | –
3 | C[C@@H]1CN(c2cncc(-c3cc(F)cc(-c4ccc(-n5ccn(C)c5=O)c(Cl)c4)c3O)c2)CCN1C [Example 474, (R)-1-(3-chloro-3′-(5-(3,4-dimethylpiperazin-1-yl)pyridin-3-yl)-5′-fluoro-2′-hydroxy-[1,1′-biphenyl]-4-yl)-3-methyl-1H-imidazol-2(3H)-one] | 0.3 to 30 nM | 0.01 to 1 nM | – | –
4 | Cn1ncn(-c2ccc(-c3cc(F)cc(-c4ccnc(N5CCNCC5)c4)c3O)cc2Cl)c1=O [Example 462, 4-(3-chloro-5′-fluoro-2′-hydroxy-3′-(2-(piperazin-1-yl)pyridin-4-yl)-[1,1′-biphenyl]-4-yl)-1-methyl-1H-1,2,4-triazol-5(4H)-one] | 30 to 300 nM | 1 to 10 nM | – | –
5 | CN1CCN(c2c(F)cc(-c3cc(F)cc(-c4ccnc(N5CCNCC5)c4)c3O)cc2Cl)C1=O [Example 400, 1-(3-chloro-5,5′-difluoro-2′-hydroxy-3′-(2-(piperazin-1-yl)pyridin-4-yl)-[1,1′-biphenyl]-4-yl)-3-methylimidazolidin-2-one] | 300 to 3000 nM | 10 to 100 nM | – | –
6 | CC(C)c1cc(-c2ccnc(N3CCNCC3)c2)c(O)c(-c2ccc(N3CCN(C)C3=O)c(Cl)c2)c1 [Example 315, l-(3-chloro-2′-hydroxy-5′-isopropyl-3′-(2-(piperazin-1-yl)pyridin-4-yl)-[1,1-biphenyl]-4-yl)-3-methylimidazolidin-2-one] | 300 to 3000 nM | 10 to 100 nM | – | –
7 | Cn1nnn(-c2ccc(-c3cc(F)cc(-c4ccnc(N5CCNCC5)c4)c3O)cc2Cl)c1=O [Example 520, 1-(3-chloro-5′-fluoro-2′-hydroxy-3′-(2-(piperazin-1-yl)pyridin-4-yl)-[1,1′-biphenyl]-4-yl)-^4-methyl-1H-tetrazol-5(4H)-one] | 300 to 3000 nM | 10 to 100 nM | – | –
8 | CN1CCN(c2ccc(-c3cccc(-c4ccnc(N5CCNCC5)c4)c3O)cc2F)C1=O [Example 240, 1-(3-fluoro-2′-hydroxy-3′-(2-(piperazin-1-yl)pyridin-4-yl)-[1,1′-biphenyl]-4-yl)-3-methylimidazolidin-2-one] | 30 to 300 nM | 1 to 10 nM | – | –
9 | O=C1N(c2ccc(-c3cccc(-c4ccnc(N5CCNCC5)c4)c3O)cc2Cl)CCC12CC2 [Example 341, 5-(3-chloro-2′-hydroxy-3′-(2-(piperazin-1-yl)pyridin-4-yl)-[1,1′-biphenyl]-4-yl)-5-azaspiro[2.4]heptan-4-one] | 300 to 3000 nM | 10 to 100 nM | – | –
10 | CN1CCN(c2cncc(-c3cc(F)cc(-c4ccc(-n5ccn(C)c5=O)c(Cl)c4)c3O)c2)CC1 [Example 465, 1-(3-chloro-5′-fluoro-2′-hydroxy-3′-(5-(4-methylpiperazin-1-yl)pyridin-3-yl)-[1,1′-biphenyl]-4-yl)-3-methyl-1H-imidazol-2(3H)-one] | 0.3 to 30 nM | 0.01 to 1 nM | – | –
11 | CNCc1n[nH]c2ccc(-c3cc(F)cc(-c4ccc(-n5ccn(C)c5=O)c(Cl)c4)c3O)cc12 [Example 494, 1-(3-chloro-5′-fluoro-2′-hydroxy-3′-(3-((methylamino)methyl)-1H-indazol-5-yl)-[1,1′-biphenyl]-4-yl)-3-methyl-1H-imidazol-2(3H)-one] | 30 to 300 nM | 1 to 10 nM | – | –
12 | CN(C)[C@H]1CCCN(c2cncc(-c3cc(F)cc(-c4ccc(-n5ccn(C)c5=O)c(Cl)c4)c3O)c2)C1 [Example 501, (S)-1-(3-chloro-3′-(5-(3-(dimethylamino)piperidin-1-yl)pyridin-3-yl)-5′-fluoro-2′-hydroxy-[1,1′-biphenyl]-4-yl)-3-methyl-1H-imidazol-2(3H)-one] | 0.3 to 30 nM | 0.01 to 1 nM | – | –
13 | Cn1ccn(-c2ccc(-c3cc(F)cc(-c4ccnc(N5CCN(CC(=O)O)CC5)c4)c3O)cc2Cl)c1=O [Example 521, 2-(4-(4-(3′-chloro-5-fluoro-2-hydroxy-4′-(3-methyl-2-oxo-2,3-dihydro-1H-imidazol-1-yl)-[1,1′-biphenyl]-3-yl)pyridin-2-yl)piperazin-1-yl)acetic acid] | 30 to 300 nM | 1 to 10 nM | – | –
14 | [2H]C([2H])([2H])n1ccn(-c2ccc(-c3cc(F)cc(-c4ccnc(N5CCN[C@H](C)C5)c4)c3O)cc2Cl)c1=O [Example 453, (R)-1-(3-chloro-5′-fluoro-2′-hydroxy-3′-(2-(3-methylpiperazin-1-yl)pyridin-4-yl)-[1,1′-biphenyl]-4-yl)-3-deuteromethyl-1H-imidazol-2(3H)-one] | 0.3 to 30 nM | 0.01 to 1 nM | – | –
15 | CC(C)N1C2CCC1CN(c1cccc(-c3cc(F)cc(-c4ccc(-n5ccn(C)c5=O)c(Cl)c4)c3O)c1)C2 [Example 846, 1-(3-chloro-5′-fluoro-2′-hydroxy-338-(8-isopropyl-3,8-diazabicyclo[3.2.1]octan-3-yl)-[1,1′:3′,1″-terphenyl]-4-yl)-3-methyl-1H-imidazol-2(3H)-one] | 0.3 to 30 nM | 0.01 to 1 nM | – | –
16 | Cn1ccn(-c2ccc(-c3cc(F)cc(-c4ccnc(-c5ccncc5)c4)c3O)cc2Cl)c1=O [Example 481, 1-(3′-([2,4′-bipyridin]-4-yl)-3-chloro-5′-fluoro-2′-hydroxy-[1,1′-biphenyl]-4-yl)-3-methyl-1H-imidazol-2(3H)-one] | 300 to 3000 nM | 1 to 10 nM | – | –

Second part, the compound after the results:

Row | GI50 [1, 3] | IC50 [2, 4] | GI50 [1, 5] | IC50 [2, 6] | SMILES
17 | 30 to 300 nM | 0.01 to 1 nM | – | – | Cn1ccn(-c2ccc(-c3cc(F)cc(-c4ccnc(N5CC6(CCNC6)CC5=O)c4)c3O)cc2Cl)c1=O (stereo not shown) [Example 705, 2-(4-(3′-chloro-5-fluoro-2-hydroxy-4′-(3-methyl-2-oxo-2,3-dihydro-1H-imidazol-1-yl)-[1,1′-biphenyl]-3-yl)pyridin-2-yl)-2,7-diazaspiro[4.4]nonan-3-one]
18 | 30 to 300 nM | 1 to 10 nM | – | – | Cn1ccn(-c2ccc(-c3cc(F)cc(-c4ccnc(N5CCN(C6CC6)CC5)c4)c3O)cc2Cl)c1=O [Example 531, 1-(3-chloro-3′-(2-(4-cyclopropylpiperazin-1-yl)pyridin-4-yl)-5′-fluoro-2′-hydroxy-[1,1′-biphenyl]-4-yl)-3-methyl-1H-imidazol-2(3H)-one]
19 | 30 to 300 nM | 1 to 10 nM | – | – | CC(=O)N[C@@]1(C)CCN(c2cc(-c3cc(F)cc(-c4ccc(-n5ccn(C)c5=O)c(Cl)c4)c3O)cc(=O)n2C)C1 [Example 774, (S)-N-(1-(4-(3′-chloro-5-fluoro-2-hydroxy-4′-(3-methyl-2-oxo-2,3-dihydro-1H-imidazol-1-yl)-[1,1′-biphenyl]-3-yl)-1-methyl-6-oxo-1,6-dihydropyridin-2-yl)-3-methylpyrrolidin-3-yl)acetamide]
20 | 0.3 to 30 nM | 0.01 to 1 nM | – | – | Cn1ccn(-c2ccc(-c3cc(F)cc(-c4ccnc(C5CCCNC5)c4)c3O)cc2Cl)c1=O (stereo not shown) [Example 654, 1-(3-chloro-5′-fluoro-2′-hydroxy-3′-(2-(piperidin-3-yl)pyridin-4-yl)-[1,1′-biphenyl]-4-yl)-3-methyl-1H-imidazol-2(3H)-one]
21 | – | – | 300 to 3000 nM | > 100 nM | CC(=O)Nc1cccc(-c2cc(F)cc(-c3cccc(N4CCNCC4)c3)c2O)c1Cl [Example 888]
22 | 300 to 3000 nM | 10 to 100 nM | – | – | CN1CCN(c2ccc(-c3cc(F)cc(-c4ccc(OC5CCNCC5)nc4)c3O)cc2Cl)C1=O [compound 446, 1-(3-chloro-5′-fluoro-2′-hydroxy-3′-(6-(piperidin-4-yloxy)pyridin-3-yl)-[1,1′-biphenyl]-4-yl)-3-methylimidazolidin-2-one]
23 | – | – | 30 to 300 nM | 1 to 10 nM | Cc1cc(-c2cccc(N3CCN(C(C)(C)C)CC3)c2)c(O)c(-c2ccc(-n3ccn(C)c3=O)c(Cl)c2)n1 [Example 917, 1-(4-(4-(3-(4-(tert-Butyl)piperazin-1-yl)phenyl)-3-hydroxy-6-methylpyridin-2-yl)-2-chlorophenyl)-3-methyl-1H-imidazol-2(3H)-one]
24 | 0.3 to 30 nM | 0.01 to 1 nM | – | – | Cn1cc(-c2cc(F)cc(-c3ccc(-n4ccn(C)c4=O)c(Cl)c3)c2O)cc(N2CCN(C(C)(C)C)CC2)c1=O [Example 668, 3-(4-(tert-butyl)piperazin-1-yl)-5-(3′-chloro-5-fluoro-2-hydroxy-4′-(3-methyl-2-oxo-2,3-dihydro-1H-imidazol-1-yl)-[1,1′-biphenyl]-3-yl)-1-methylpyridin-2(1H)-one]
25 | 30 to 300 nM | 1 to 10 nM | – | – | Cn1ccn(-c2ccc(-c3cc(F)cc(-c4ccnc(N5CCC(C)(C(N)=O)C5)c4)c3O)cc2Cl)c1=O (stereo not shown) [Example 773, 1-(4-(3′-chloro-5-fluoro-2-hydroxy-4′-(3-methyl-2-oxo-2,3-dihydro-1H-imidazol-1-yl)-[1,1′-biphenyl]-3-yl)pyridin-2-yl)-3-methylpyrrolidine-3-carboxamide]
26 | 0.3 to 30 nM | 0.01 to 1 nM | – | – | Cn1ccn(-c2ccc(-c3cc(F)cc(-c4ccnc(N5CCC6(CCCN6)C5)c4)c3O)cc2Cl)c1=O (stereo not shown) [Example 636, 1-(3′-(2-(1,7-diazaspiro[4.4]nonan-7-yl)pyridin-4-yl)-3-chloro-5′-fluoro-2′-hydroxy-[1,1′-biphenyl]-4-yl)-3-methyl-1H-imidazol-2(3H)-one]
